Results published in patent US10829458B2 (Araxes Pharma LLC, priority 2015, dated 2020).

Target: T1, KRAS G12C 1-169, his-tagged protein, GDP-loaded (Homo sapiens, UniProt P01116, G12C)
T1 construct: KRAS G12C 1-169, his-tagged protein, GDP-loaded
Assay: Biochemical assay: covalent modification of KRAS G12C measured by mass spectrometry (RapidFire/TOF or Q-Exactive)
Conditions: covalent binding to KRAS G12C
Method in brief: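 GDP-loaded his-tagged KRAS G12C 1-169 at 2 μM in 20 mM Hepes, 150 mM NaCl, 1 mM MgCl2 incubated at room temperature with compound (10, 30 or 100 μM final, 2% DMSO) for 30 min, 2 h or 24 h, then quenched with formic acid. Intact-protein LC-MS (RapidFire/TOF or Q-Exactive) with deconvolution quantified modified versus unmodified protein.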

Compound	Binding % (compounds of structure (I))	also measured
C=CC(=O)N1CCN(c2nc(OCCN3CCOCC3)nc3c(F)c(-c4ccccc4C(C)C)c(Cl)cc23)CC1 [Example I-37, 1-(4-(6-chloro-8-fluoro-7-(2-isopropylphenyl)-2-(2-morpholino-ethoxy)quinazolin-4-yl)piperazin-1-yl)prop-2-en-1-one]	+++ (+++ indicates binding activity greater than 90%)	–
C=CC(=O)N1CCN(c2nc(NC3CCN(C(C)C)CC3)nc3c(F)c(-c4cc(O)cc5ccccc45)c(Cl)cc23)CC1 [Example I-77, 1-(4-(6-chloro-8-fluoro-7-(3-hydroxy-naphthalen-1-yl)-2-(1-isopropyl-piperidin-4-ylamino)quinazolin-4-yl)piperazin-1-yl)prop-2-en-1-one]	+++ (+++ indicates binding activity greater than 90%)	–
C=CC(=O)N1CCN(c2ncnc3c(F)c(-c4c(F)cccc4OCc4cncn4C)c(Cl)cc23)CC1 [II-6, 1-(4-(6-chloro-8-fluoro-7-(2-fluoro-6-((1-methyl-1H-imidazol-5-yl)methoxy)phenyl)quinazolin-4-yl)piperazin-1-yl)prop-2-en-1-one]	–	Binding % (compounds of structure (II)): ++ (++ indicates binding activity greater than 50% and less than 75%)
C=CC(=O)N1CCN(c2nc(OC3CCN(CC(F)(F)F)C3)nc3c(F)c(-c4c(O)cccc4F)c(Cl)cc23)CC1 (stereo not shown) [Example I-26, 1-(4-(6-chloro-8-fluoro-7-(2-fluoro-6-hydroxyphenyl)-2-(1-(2,2,2-trifluoroethyl)pyrrolidin-3-yloxy)quinazolin-4-yl)piperazin-1-yl)prop-2-en-1-one]	+++ (+++ indicates binding activity greater than 90%)	–
C=CC(=O)N1CCN(c2nc(NC3CCN(C(C)C)CC3)nc3c(F)c(-c4c(C)ccc5[nH]ncc45)c(Cl)cc23)CC1 [Example I-136, 1-(4-(6-chloro-8-fluoro-2-(1-isopropyl-piperidin-4-ylamino)-7-(5-methyl-1H-indazol-4-yl)quinazolin-4-yl)piperazin-1-yl) prop-2-en-1-one]	+++ (+++ indicates binding activity greater than 90%)	–
C=CC(=O)N1CCN(c2nc(OC3CCOCC3)nc3c(F)c(-c4c(O)cccc4F)c(Cl)cc23)CC1 [Example I-18, 1-(4-(6-chloro-8-fluoro-7-(2-fluoro-6-hydroxyphenyl)-2-(tetrahydro-2H-pyran-4-yloxy)quinazolin-4-yl)piperazin-1-yl)prop-2-en-1-one]	+++ (+++ indicates binding activity greater than 90%)	–
C=CC(=O)N1C[C@@H](C)N(c2ncnc3c(F)c(-c4c(C)ccc5cn[nH]c45)c(Cl)cc23)[C@@H](C)C1 [III-42, 1-((3S,5R)-4-(6-chloro-8-fluoro-7-(6-methyl-1H-indazol-7-yl)quinazolin-4-yl)-3,5-dimethyl-piperazin-1-yl)prop-2-en-1-one]	–	Binding % (compounds of structure (III)): ++ (++ indicates activity from 50% to 90%)
C=CC(=O)N1CCN(c2nc(N3CC(N4CC(F)(F)C4)C3)nc3c(F)c(-c4c(O)cccc4F)c(Cl)cc23)CC1 [Example I-179, 1-(4-(6-chloro-2-(3,3-difluoro-[1,3′-biazetidin]-1′-yl)-8-fluoro-7-(2-fluoro-6-hydroxyphenyl)quinazolin-4-yl)piperazin-1-yl) prop-2-en-1-one]	+ (+ indicates binding activity up to 50%)	–
C=CC(=O)N1CCN(c2nc(NCCN(CC)CC)nc3c(F)c(-c4c(O)cccc4F)c(Cl)cc23)CC1 [Example I-151, l-(4-(6-chloro-2-(2-(diethyl-amino)ethylamino)-8-fluoro-7-(2-fluoro-6-hydroxyphenyl)quinazolin-4-yl)piperazin-1-yl) prop-2-en-1-one]	+++ (+++ indicates binding activity greater than 90%)	–
C=CC(=O)N1C(C)CN(c2ncnc3c(F)c(-c4c(O)cccc4F)c(Cl)cc23)CC1C (stereo not shown) [III-9, 1-(4-(6-chloro-8-fluoro-7-(2-fluoro-6-hydroxy-phenyl)quinazolin-4-yl)-2,6-dimethyl-piperazin-1-yl)prop-2-en-1-one]	–	Binding % (compounds of structure (III)): ++ (++ indicates activity from 50% to 90%)
C=CC(=O)N1CCN(c2nc(OCC3OCCO3)nc3c(F)c(-c4c(O)cccc4F)c(Cl)cc23)CC1 [Example I-163, 1-(4-(2-((1,3-dioxolan-2-yl)methoxy)-6-chloro-8-fluoro-7-(2-fluoro-6-hydroxyphenyl)quinazolin-4-yl)piperazin-1-yl) prop-2-en-1-one]	+++ (+++ indicates binding activity greater than 90%)	–
C=CC(=O)N1CCN(c2nc(N3CC(N4CCC4)C3)nc3c(F)c(-c4c(O)cccc4F)c(Cl)cc23)CC1 [Example I-162, 1-(4-(2-([1,3′-biazetidin]-1′-yl)-6-chloro-8-fluoro-7-(2-fluoro-6-hydroxyphenyl)quinazolin-4-yl)piperazin-1-yl) prop-2-en-1-one]	+ (+ indicates binding activity up to 50%)	–
C=CC(=O)N1CCN(c2nc(OCCN(CC)CC)nc3c(F)c(-c4c(C)ccc5cn[nH]c45)c(Cl)cc23)CC1 [Example I-183, 1-(4-(6-chloro-2-(2-(diethyl-amino)ethoxy)-8-fluoro-7-(6-methyl-1H-indazol-7-yl)quinazolin-4-yl)piperazin-1-yl) prop-2-en-1-one]	+++ (+++ indicates binding activity greater than 90%)	–
C=CC(=O)N1CCN(c2nc(NC3CCN(C)CC3)nc3c(F)c(-c4c(O)cccc4F)c(Cl)cc23)CC1 [Example I-3, 1-(4-(6-chloro-8-fluoro-7-(2-fluoro-6-hydroxyphenyl)-2-(1-methylpiperidin-4-ylamino)quinazolin-4-yl)piperazin-1-yl) prop-2-en-1-one]	+++ (+++ indicates binding activity greater than 90%)	–
C=CC(=O)N1CCN(c2nc(OCCN3CCCC3=O)nc3c(F)c(-c4c(C)ccc5[nH]ncc45)c(Cl)cc23)CC1 [Example I-1, 1-(2-(4-(4-acryloylpiperazin-1-yl)-6-chloro-8-fluoro-7-(5-methyl-1H-indazol-4-yl)quinazolin-2-yloxy)ethyl) pyrrolidin-2-one]	+++ (+++ indicates binding activity greater than 90%)	–
C=CC(=O)N1CCN(c2nc(NC3CCN(C4COC4)CC3)nc3c(F)c(-c4c(C)ccc5[nH]ncc45)c(Cl)cc23)CC1 [Example I-137, 1-(4-(6-chloro-8-fluoro-7-(5-methyl-1H-indazol-4-yl)-2-(1-(oxetan-3-yl)piperidin-4-ylamino)quinazolin-4-yl)piperazin-1-yl) prop-2-en-1-one]	+++ (+++ indicates binding activity greater than 90%)	–
C=CC(=O)N1CCN(c2nc(C(N)=O)nc3c(F)c(-c4c(O)cccc4F)c(Cl)cc23)CC1 [Example I-85, 4-(4-acryloyl-piperazin-1-yl)-6-chloro-8-fluoro-7-(2-fluoro-6-hydroxyphenyl) quinazoline-2-carboxamide]	+++ (+++ indicates binding activity greater than 90%)	–
C=CC(=O)N1CCN(c2nc(OCC3CCN(CC(F)(F)F)CC3)nc3c(F)c(-c4c(O)cccc4F)c(Cl)cc23)CC1 [Example I-35, 1-(4-(6-chloro-8-fluoro-7-(2-fluoro-6-hydroxyphenyl)-2-((1-(2,2,2-trifluoroethyl)piperidin-4-yl)methoxy)quinazolin-4-yl)piperazin-1-yl)prop-2-en-1-one]	++ (++ indicates binding activity from 50 to 90%)	–
C=CC(=O)N1CCN(c2nc(OC3CCOCC3)nc3c(F)c(-c4c(C)ccc5[nH]ncc45)c(Cl)cc23)CC1 [Example I-13, 1-(4-(6-chloro-8-fluoro-7-(5-methyl-1H-indazol-4-yl)-2-(tetrahydro-2H-pyran-4-yloxy)quinazolin-4-yl)piperazin-1-yl)prop-2-en-1-one]	+++ (+++ indicates binding activity greater than 90%)	–
C=CC(=O)N1CCN(c2nc(OCc3ccccn3)nc3c(F)c(-c4c(O)cccc4F)c(Cl)cc23)CC1 [Example I-112, 1-(4-(6-chloro-8-fluoro-7-(2-fluoro-6-hydroxyphenyl)-2-(pyridin-2-ylmethoxy)quinazolin-4-yl)piperazin-1-yl) prop-2-en-1-one]	+++ (+++ indicates binding activity greater than 90%)	–
C=C(F)C(=O)N1CCN(c2nc(OCCN3CCOCC3)nc3c(F)c(-c4cc(O)cc5ccccc45)c(Cl)cc23)CC1 [Example I-50, 1-(4-(6-chloro-8-fluoro-7-(3-hydroxy-naphthalen-1-yl)-2-(2-morpholino-ethoxy)quinazolin-4-yl)piperazin-1-yl)-2-fluoroprop-2-en-1-one]	++ (++ indicates binding activity from 50 to 90%)	–
C=CC(=O)N1CCN(c2nc(OCCN3CCC3)nc3c(F)c(-c4c(O)cccc4F)c(Cl)cc23)CC1 [Example I-43, 1-(4-(2-(2-(azetidin-1-yl)ethoxy)-6-chloro-8-fluoro-7-(2-fluoro-6-hydroxyphenyl)quinazolin-4-yl)piperazin-1-yl) prop-2-en-1-one]	+++ (+++ indicates binding activity greater than 90%)	–
C=CC(=O)N1[C@H](C)CN(c2ncnc3c(F)c(-c4c(C)ccc5cn[nH]c45)c(Cl)cc23)C[C@@H]1C [III-35, 1-((2S,6R)-4-(6-chloro-8-fluoro-7-(6-methyl-1H-indazol-7-yl)quinazolin-4-yl)-2,6-dimethyl-piperazin-1-yl)prop-2-en-1-one]	–	Binding % (compounds of structure (III)): +++ (+++ indicates binding activity greater than 90%)
C=CC(=O)N1CCN(c2nc(OC3CCC(O)CC3)nc3c(F)c(-c4c(O)cccc4F)c(Cl)cc23)CC1 (stereo not shown) [Example I-63, 1-(4-(6-chloro-8-fluoro-7-(2-fluoro-6-hydroxyphenyl)-2-(4-hydroxy-cyclohexyloxy)quinazolin-4-yl)piperazin-1-yl)prop-2-en-1-one]	+++ (+++ indicates binding activity greater than 90%)	–
C=CC(=O)N1CCN(c2nc(CCN(C)C)nc3c(F)c(-c4c(C)ccc5[nH]ncc45)c(Cl)cc23)CC1 [Example I-34, 1-(4-(6-chloro-2-(2-(dimethyl-amino)ethyl)-8-fluoro-7-(5-methyl-1H-indazol-4-yl)quinazolin-4-yl)piperazin-1-yl)prop-2-en-1-one]	+++ (+++ indicates binding activity greater than 90%)	–
